Reference: ChEMBL document CHEMBL5465560, “Selectivity Literature for EUbOPEN Chemogenomic Library” (2024)

What was measured:
[1] = target: Dual specificity protein kinase CLK3 (Homo sapiens, UniProt P49761); assay: Selectivity interaction (Enzymatic assay (Eurofins)) EUB0001049a CLK3
[2] = target: T1, Dual specificity mitogen-activated protein kinase kinase 4 (Homo sapiens) (UniProt P45985); assay: Selectivity interaction (Ambit KINOMEscan and KiNATiv profiling in Jurkat cells) EUB0000090b MAP2K4; assay type: cell-based; conditions: at 1 µM
T1 sequence (whole entry): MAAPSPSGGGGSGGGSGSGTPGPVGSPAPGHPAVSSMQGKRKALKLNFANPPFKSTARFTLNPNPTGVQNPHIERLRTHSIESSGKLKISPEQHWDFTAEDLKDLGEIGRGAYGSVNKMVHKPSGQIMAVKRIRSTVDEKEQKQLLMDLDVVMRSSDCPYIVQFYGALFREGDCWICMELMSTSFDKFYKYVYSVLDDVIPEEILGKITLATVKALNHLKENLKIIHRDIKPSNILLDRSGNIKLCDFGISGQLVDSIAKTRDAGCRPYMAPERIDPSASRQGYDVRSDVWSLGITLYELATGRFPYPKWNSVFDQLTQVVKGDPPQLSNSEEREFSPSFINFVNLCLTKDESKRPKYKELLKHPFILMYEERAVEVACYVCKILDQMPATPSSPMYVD

[3] = target: T2, Serine/threonine-protein kinase TAO2 (Homo sapiens) (UniProt Q9UL54); assay: Selectivity interaction (Ambit KINOMEscan and KiNATiv profiling in Jurkat cells) EUB0000090b TAOK2; assay type: cell-based; conditions: at 1 µM
T2 sequence (whole entry): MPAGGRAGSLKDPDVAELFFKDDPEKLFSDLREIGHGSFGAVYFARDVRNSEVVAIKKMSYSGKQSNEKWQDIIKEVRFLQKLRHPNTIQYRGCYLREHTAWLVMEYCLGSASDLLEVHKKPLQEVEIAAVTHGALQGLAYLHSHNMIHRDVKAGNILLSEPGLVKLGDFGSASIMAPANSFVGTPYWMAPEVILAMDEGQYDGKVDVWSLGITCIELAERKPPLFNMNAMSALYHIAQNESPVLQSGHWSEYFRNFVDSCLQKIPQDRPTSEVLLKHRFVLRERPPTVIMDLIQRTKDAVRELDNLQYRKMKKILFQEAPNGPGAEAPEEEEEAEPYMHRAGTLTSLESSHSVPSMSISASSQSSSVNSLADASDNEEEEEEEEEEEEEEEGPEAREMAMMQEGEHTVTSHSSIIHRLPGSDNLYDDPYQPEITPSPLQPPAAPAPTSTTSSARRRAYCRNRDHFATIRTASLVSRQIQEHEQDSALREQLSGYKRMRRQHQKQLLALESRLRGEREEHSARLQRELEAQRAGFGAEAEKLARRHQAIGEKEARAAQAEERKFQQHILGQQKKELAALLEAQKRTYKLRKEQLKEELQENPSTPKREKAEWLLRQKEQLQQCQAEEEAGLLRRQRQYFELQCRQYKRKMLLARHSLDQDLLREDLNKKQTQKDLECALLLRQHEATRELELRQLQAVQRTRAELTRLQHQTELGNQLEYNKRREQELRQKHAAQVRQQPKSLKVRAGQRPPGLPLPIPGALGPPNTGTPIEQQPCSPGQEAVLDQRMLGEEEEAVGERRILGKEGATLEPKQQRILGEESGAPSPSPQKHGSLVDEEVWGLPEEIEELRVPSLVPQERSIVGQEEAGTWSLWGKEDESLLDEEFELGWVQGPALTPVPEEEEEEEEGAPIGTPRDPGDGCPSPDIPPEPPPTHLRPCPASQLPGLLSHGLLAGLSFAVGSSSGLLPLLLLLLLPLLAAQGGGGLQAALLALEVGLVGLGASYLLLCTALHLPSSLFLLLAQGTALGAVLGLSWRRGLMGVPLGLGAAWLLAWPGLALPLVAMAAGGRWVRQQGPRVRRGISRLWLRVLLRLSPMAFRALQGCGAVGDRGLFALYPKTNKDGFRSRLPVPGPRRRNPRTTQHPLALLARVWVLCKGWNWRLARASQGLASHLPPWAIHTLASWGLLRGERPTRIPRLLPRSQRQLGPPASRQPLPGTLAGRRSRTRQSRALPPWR

[4] = target: Cyclin-dependent kinase-like 1 (Homo sapiens) (UniProt Q00532); assay: Selectivity interaction (KinomeScan (DiscoverX)) EUB0000092b CDKL1; conditions: at 10 µM
Sequence of Cyclin-dependent kinase-like 1 (Homo sapiens) (Q00532 whole entry): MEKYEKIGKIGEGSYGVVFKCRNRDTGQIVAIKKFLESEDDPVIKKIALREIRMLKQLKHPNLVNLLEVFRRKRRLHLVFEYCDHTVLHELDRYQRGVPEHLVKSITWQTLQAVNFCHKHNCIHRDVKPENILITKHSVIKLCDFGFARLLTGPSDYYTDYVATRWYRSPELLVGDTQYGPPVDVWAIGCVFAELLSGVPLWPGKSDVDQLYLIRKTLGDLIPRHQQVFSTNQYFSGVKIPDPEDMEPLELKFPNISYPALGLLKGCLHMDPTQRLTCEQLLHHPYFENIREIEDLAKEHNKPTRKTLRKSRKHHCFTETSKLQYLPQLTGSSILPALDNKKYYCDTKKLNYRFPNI

[5] = target: T3, Ephrin type-B receptor 1 (Homo sapiens) (UniProt P54762); assay: Selectivity interaction (SelectScreen profiling (Invitrogen)) EUB0000607a EPHB1; conditions: at 2 µM
T3 sequence (whole entry): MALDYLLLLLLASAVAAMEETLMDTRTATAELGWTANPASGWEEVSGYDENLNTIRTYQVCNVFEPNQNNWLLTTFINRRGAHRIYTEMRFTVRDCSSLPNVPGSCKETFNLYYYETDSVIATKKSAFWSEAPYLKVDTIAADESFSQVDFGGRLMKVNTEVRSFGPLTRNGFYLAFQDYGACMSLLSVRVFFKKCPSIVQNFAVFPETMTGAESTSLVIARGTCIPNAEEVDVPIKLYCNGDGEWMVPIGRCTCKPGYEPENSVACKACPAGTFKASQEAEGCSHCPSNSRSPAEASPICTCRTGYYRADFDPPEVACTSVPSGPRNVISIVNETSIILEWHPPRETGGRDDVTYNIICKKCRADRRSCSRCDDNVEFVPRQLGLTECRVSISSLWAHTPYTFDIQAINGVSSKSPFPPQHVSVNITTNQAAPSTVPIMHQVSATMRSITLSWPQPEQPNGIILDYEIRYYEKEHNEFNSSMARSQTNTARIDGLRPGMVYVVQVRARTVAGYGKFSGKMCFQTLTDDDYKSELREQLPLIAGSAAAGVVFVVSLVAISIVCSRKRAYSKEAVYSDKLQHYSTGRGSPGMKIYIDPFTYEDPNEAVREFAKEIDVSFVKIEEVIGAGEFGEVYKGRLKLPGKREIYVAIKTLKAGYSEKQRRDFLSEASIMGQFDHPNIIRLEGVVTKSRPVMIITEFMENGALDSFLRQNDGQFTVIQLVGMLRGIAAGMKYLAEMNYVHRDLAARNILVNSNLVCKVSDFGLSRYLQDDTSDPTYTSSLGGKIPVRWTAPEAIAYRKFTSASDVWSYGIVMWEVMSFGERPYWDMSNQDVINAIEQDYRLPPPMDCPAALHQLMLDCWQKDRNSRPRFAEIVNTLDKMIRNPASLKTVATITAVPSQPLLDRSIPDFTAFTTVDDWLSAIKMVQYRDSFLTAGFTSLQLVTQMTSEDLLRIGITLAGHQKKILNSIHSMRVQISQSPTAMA

[6] = target: NT-3 growth factor receptor (Homo sapiens, UniProt Q16288); assay: Selectivity interaction (KinomeScan (DiscoverX)) EUB0000607a NTRK3; conditions: at 10 µM
Sequence of NT-3 growth factor receptor (Q16288 32-839 limits assumed): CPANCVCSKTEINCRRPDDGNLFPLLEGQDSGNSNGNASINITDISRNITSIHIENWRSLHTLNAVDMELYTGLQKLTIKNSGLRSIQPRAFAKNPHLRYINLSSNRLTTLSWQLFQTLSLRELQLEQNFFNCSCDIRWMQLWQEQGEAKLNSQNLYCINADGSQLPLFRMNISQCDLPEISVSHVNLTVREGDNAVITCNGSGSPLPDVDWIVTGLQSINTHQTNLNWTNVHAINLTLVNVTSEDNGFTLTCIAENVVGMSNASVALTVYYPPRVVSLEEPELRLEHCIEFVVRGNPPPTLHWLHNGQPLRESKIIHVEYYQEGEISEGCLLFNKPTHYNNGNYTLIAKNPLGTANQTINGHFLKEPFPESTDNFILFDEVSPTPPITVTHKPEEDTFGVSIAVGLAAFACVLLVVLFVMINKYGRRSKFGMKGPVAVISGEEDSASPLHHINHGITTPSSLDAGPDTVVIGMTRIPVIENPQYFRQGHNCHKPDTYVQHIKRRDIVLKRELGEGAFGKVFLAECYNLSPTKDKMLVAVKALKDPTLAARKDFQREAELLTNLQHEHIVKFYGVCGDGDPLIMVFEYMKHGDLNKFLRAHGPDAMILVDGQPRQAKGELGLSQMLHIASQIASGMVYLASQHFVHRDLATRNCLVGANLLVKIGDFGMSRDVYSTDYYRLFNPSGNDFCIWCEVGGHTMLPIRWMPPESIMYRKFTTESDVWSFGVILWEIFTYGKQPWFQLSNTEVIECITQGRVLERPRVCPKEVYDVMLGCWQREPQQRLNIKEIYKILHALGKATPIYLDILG

Sequence of Dual specificity protein kinase CLK3 (P49761 whole entry): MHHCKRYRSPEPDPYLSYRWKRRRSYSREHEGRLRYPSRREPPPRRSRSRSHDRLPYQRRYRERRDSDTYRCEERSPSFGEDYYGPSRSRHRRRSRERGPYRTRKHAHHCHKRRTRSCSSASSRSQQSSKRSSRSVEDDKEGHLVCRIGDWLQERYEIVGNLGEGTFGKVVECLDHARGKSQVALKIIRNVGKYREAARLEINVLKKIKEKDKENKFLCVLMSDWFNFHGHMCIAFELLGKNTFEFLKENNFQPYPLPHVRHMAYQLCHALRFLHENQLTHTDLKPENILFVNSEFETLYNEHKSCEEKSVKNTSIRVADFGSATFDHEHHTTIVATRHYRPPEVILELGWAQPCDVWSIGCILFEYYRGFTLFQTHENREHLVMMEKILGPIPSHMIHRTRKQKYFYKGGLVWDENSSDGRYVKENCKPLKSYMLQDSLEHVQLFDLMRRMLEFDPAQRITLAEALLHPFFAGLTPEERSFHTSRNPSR

## COc1cc(Nc2nc(C)cc(-c3cnn4nc(OC)ccc34)n2)cc(C(F)(F)F)c1
[1]
  IC50: > 10 µM

## CN(C)C/C=C/C(=O)Nc1ccc(C(=O)N2CCCC(Nc3ncc(Cl)c(-c4c[nH]c5ccccc45)n3)C2)cc1 (stereo unspecified)
[2]
  % of control: 70%
[3]
  % of control: 50%

## CCC(=O)N1CCN(c2ccc(-n3c(=O)ccc4cnc5ccc(-c6cnc7ccccc7c6)cc5c43)cc2C(F)(F)F)CC1
[4]
  % of control: 100%

## CNC(=O)Nc1ccc(-c2nc(N3CC4CCC(C3)O4)c3cnn(C4CCC5(CC4)OCCO5)c3n2)cc1
[5]
  % of inhibition: 2%
[6]
  % of control: 93%
